The results in this text go back to patent US8394434B2, “SCF extract containing cardiac glycoside” (Phoenix Biotechnology, Inc., priority 2005, dated 2013).

One assay relates to Human melanoma BRO cells. Description: Cytotoxicity comparison, crystal violet staining (Example 10). It counts as cell-based. The settings on record: presented as μM oleandrin concentration in the extract, 72 hr incubation. The protocol: (§1) The extracts also differ in their relative performance as determined by efficacy against several tumor cell lines (Example 10). Oleandrin-containing samples were prepared to contain the same amount of oleandrin although the concentration of oleandrin in each sample varied due to the differences in the concentration of in the extracts. The data obtained are summarized in the table below and in FIGS. 4 and 5.
(§2) The cytotoxic potential of both extracts are compared directly with that of oleandrin. The samples contained the same amounts of oleandrin even though their concentration of oleandrin differed due to the concentration of oleandrin present in the extracts.
(§3) BRO (human melanoma) and Panc-1 (human pancreatic cancer) cells (8×10^3/well) were plated in a 96 well plate and allowed to attach overnight. Drug or extracts were then added to the cells. After 72 hr of incubation, relative cell proliferation (relative to control untreated cells) was assessed by crystal violet staining method.

Assay [1] has as its system Human pancreatic cancer PANC-1 cells. The assay is described as above. It counts as cell-based. The settings on record: presented as μM oleandrin concentration in the extract, 72 hr incubation. The protocol: as §1, §2, §3
In another assay the test system is PANC-1 cells. Description: Cell cycle analysis by flow cytometry. It counts as cell-based, human. The settings on record: 25 nM oleandrin or extract equivalent to 25 nM oleandrin, 24 hrs. Here is the method: The effect of oleandrin, the hot-water and SCF extract upon cell cycle changes of PANC-1 cells treated therewith was evaluated over a 24-hour period. Panc-1 cells were treated with 25 nM of oleandrin alone or the amount of hot water extract or supercritical CO2 extract of oleander which was equivalent to 25 nM of oleandrin for 24 hrs. Cell cycle analysis was carried out by flow cytometry. Cell division consists of two consecutive processes, mainly characterized by DNA replication and then segregation of replicated chromosomes into two separate cells. Replication of DNA occurs in a specific part of the interphase called S phase. S phase is preceded by a gap called G1 during which the cell is preparing for DNA synthesis. This is […] then followed by a gap called G2 during which the cell prepares for mitosis. Then this is followed with the mitosis phase, or M phase. G1, S, G2 and M phases are the traditional subdivisions of the standard cell cycle. Cells which are in a G2/M block such as that induced by the supercritical CO2 extract cannot undergo division.
The data are expressed as the relative percentage of cells in a given phase of the cell cycle.
(Flow cytometry measures light scatter and fluorescence of single cells or particles in a stream.)

In assay [2] the test system is Akt (pAkt) in Panc-1 cells. Description: Phosphorylation of Akt, gel electropherogram (FIG. 3). It counts as cell-based, human. From the text:
(§4) FIG. 3 depicts a photograph of the relevant bands of a gel electropherogram obtained as part of an assay comparing the activity of oleandrin, hot-water extract and the SCF extract of the invention toward inhibition of phosphoryation (active form) of Akt and augmentation of (phosphorylation) of Erk.
(§5) Phosphorylation of the serine/threonine kinase known as Akt provides tumor cells with enhanced survival capability. Increased Akt activity promotes survival of tumor cells that would normally undergo death by apoptosis. In addition, pAkt is involved in cell proliferation, angiogenesis, genome instability and cell invasion and migration (Yoeli-Lerner M and Toker A. Akt/PKB Signaling in Cancer. Cell Cycle 5:603-605, 2006). All of these responses contribute to initiation and progression. Further evidence of the importance of Akt signaling in cancer comes from studies which have detected over-expression and hyper-activation (through phosphorylation) of Akt in a wide range of human tumors, and this is often linked with poor prognosis. The relative activity of the hot-water and SCF extract on critical cell signaling proteins in human pancreatic cancer (Panc-1) cells were also compared. […] The relative ability of the supercritical CO2 extract to inhibit pAkt expression is much greater than that of oleandrin or the hot water extract of Nerium oleander. […]

In assay [3] the test system is ERK (pERK) in Panc-1 cells. As to the kind of experiment: Expression of pERK, gel electropherogram (FIG. 3). It counts as cell-based, human.
Text: as §4, §5

Broadly, the IC50 is the concentration that inhibits the measured activity by half. Higher therefore signals weaker potency in that assay. Consider `CO[C@H]1C[C@H](O[C@H]2CC[C@@]3(C)[C@H](CC[C@@H]4[C@@H]3CC[C@]3(C)[C@@H](C5=CC(=O)OC5)[C@@H](OC(C)=O)C[C@]43O)C2)O[C@@H](C)[C@@H]1O` [Oleandrin, oleandrin], for which the IC50 with Human melanoma BRO cells was found to be 0.017 µM. Besides, in assay [1], it took 0.01 µM to reach half-maximal inhibition (IC50). Also, in the assay on PANC-1 cells, the “G1 phase, relative percentage of cells” value is 30.5%; the “G2/M phase, relative percentage of cells” value was found to be 26.2%; the “S phase, relative percentage of cells” value is 43.3%. Besides, the “inhibition of PI3 Kinase resulting in reduction of phosphorylation of Akt” value in assay [2] is on record as “reduction of phosphorylation of Akt”. Moreover, in assay [3], the “expression of pERK” value is listed as “dramatically increased”.
